Measured values as given in PMC11219871, “Epigenetic-based differentiation therapy for Acute Myeloid Leukemia” (Nature Communications, 2024).
pIC50: −log10 of the molar value. Where “and” joins values, the source holds several entries; their conditions need not be identical. Identical values can stand only once.

Tests used:
HDAC3 = HDAC3 (Homo sapiens, UniProt O15379); test: HDAC enzymatic assay, fluorescence-labeled substrate; format: biochemical; details: 10 µM, source data of Fig. 1B
HDAC9 = biological target: T1, HDAC9 (Homo sapiens, UniProt Q9UKV0); test: HDAC assay (Eurofins); format: biochemical
T1 construct: purchased Eurofins (contracted assay service)

Rag2-/-γc-/- mice = test: Toxicity assay: hematological and liver parameters, liver histology; format: in vivo, mouse; details: for ALT (Counts (U/L)) / AST (Counts (U/L)) / Bilirubin (Counts (mg/dl)) / HDL (Counts (mmol/l)) / LCLC3 (Counts (mmol/l)) / UREA (Counts (mg/dl)) / Hematocrit (Counts (%)) / Hemoglobin (Counts (g/dl)) / PLT (Counts (K/O)) / RBC (Counts (K/O)) / WBC (Counts (K/O)): healthy Rag2-/-γc-/- mice, individual mice, 10 mg/kg; for ALT (Counts (U/L)) / AST (Counts (U/L)) / Bilirubin (Counts (mg/dl)) / HDL (Counts (mmol/l)) / LCLC3 (Counts (mmol/l)) / UREA (Counts (mg/dl)): 10 mg/kg i.p. daily for 3 weeks then 7-day washout; for Hematocrit (Counts (%)) / Hemoglobin (Counts (g/dl)) / PLT (Counts (K/O)) / RBC (Counts (K/O)) / WBC (Counts (K/O)): 10 mg/kg i.p. daily for 3 weeks
Method: After treating Rag2^−/−γc^−/− mice with i.p. […] Hematological and liver parameters were measured.
Hematological parameters, including white blood cells, red blood cells, platelet count, hemoglobin and hematocrit, were measured on a Hemavet Hematology Analyzer (Drew Scientific). Liver enzymes (albumin, alkaline phosphatase, aspartate transaminase, alanine transaminase), cholesterol, bilirubin, urea and bile acid levels were analyzed from mice serum using a C311 Cobas Analyzer (Roche Diagnostics).
Mice livers were fixed in paraformaldehyde at 4% for 6–8 h, washed twice with saline solution and stored in 70% ethanol. Samples were included in paraffin, and 3-µm serial sections were cut, deparaffinated, and stained with hematoxylin–eosin.

[1] = system: LINE-1 DNA methylation in ML-2; test: LINE-1 pyrosequencing; format: cell-based, human
Method: (§1) DNA methylation of the repetitive element LINE-1 was analyzed using a pyrosequencing technique. […] Cells were washed twice with PBS, and then genomic DNA was extracted using a DNA Kit (Nucleo Spin Tissue, Cat No 74095250, Macherey-Nagel) following the manufacturer's instructions. DNA purity and concentration were measured using a NanoDrop spectrophotometer (Thermo Scientific). A 1 μg amount of genomic DNA was treated and modified using a CpGenome DNA modification Kit (Cat No S7820, Chemicon International) following the manufacturer's instructions. […] [NT]) in a final volume of 25 μL. The resulting biotinylated PCR products were immobilized to Streptavidin Sepharose ® High-Performance beads (GE Healthcare) and processed to yield high-quality ssDNA using the PyroMark Vacuum Prep Workstation (Biotage) according to the manufacturer's instructions. The pyrosequencing reactions were performed using the PyromarkTM ID (Biotage), and sequence analysis was performed using the PyroQ-CpG analysis software (Biotage).

[2] = system: LINE-1 DNA methylation in MOLM-13; test: LINE-1 pyrosequencing; format: cell-based, human
Method: as §1

[3] = system: LINE-1 DNA methylation in MV4-11; test: LINE-1 pyrosequencing; format: cell-based, human
Method: as §1

[4] = system: LINE-1 DNA methylation in HL-60; test: LINE-1 pyrosequencing; format: cell-based, human
Method: as §1

HDAC5 = biological target: T2, HDAC5 (Homo sapiens, UniProt Q9UQL6); test: HDAC assay (Eurofins); format: biochemical
T2 construct: purchased Eurofins (contracted assay service)
T2 sequence (Q9UQL6 whole entry): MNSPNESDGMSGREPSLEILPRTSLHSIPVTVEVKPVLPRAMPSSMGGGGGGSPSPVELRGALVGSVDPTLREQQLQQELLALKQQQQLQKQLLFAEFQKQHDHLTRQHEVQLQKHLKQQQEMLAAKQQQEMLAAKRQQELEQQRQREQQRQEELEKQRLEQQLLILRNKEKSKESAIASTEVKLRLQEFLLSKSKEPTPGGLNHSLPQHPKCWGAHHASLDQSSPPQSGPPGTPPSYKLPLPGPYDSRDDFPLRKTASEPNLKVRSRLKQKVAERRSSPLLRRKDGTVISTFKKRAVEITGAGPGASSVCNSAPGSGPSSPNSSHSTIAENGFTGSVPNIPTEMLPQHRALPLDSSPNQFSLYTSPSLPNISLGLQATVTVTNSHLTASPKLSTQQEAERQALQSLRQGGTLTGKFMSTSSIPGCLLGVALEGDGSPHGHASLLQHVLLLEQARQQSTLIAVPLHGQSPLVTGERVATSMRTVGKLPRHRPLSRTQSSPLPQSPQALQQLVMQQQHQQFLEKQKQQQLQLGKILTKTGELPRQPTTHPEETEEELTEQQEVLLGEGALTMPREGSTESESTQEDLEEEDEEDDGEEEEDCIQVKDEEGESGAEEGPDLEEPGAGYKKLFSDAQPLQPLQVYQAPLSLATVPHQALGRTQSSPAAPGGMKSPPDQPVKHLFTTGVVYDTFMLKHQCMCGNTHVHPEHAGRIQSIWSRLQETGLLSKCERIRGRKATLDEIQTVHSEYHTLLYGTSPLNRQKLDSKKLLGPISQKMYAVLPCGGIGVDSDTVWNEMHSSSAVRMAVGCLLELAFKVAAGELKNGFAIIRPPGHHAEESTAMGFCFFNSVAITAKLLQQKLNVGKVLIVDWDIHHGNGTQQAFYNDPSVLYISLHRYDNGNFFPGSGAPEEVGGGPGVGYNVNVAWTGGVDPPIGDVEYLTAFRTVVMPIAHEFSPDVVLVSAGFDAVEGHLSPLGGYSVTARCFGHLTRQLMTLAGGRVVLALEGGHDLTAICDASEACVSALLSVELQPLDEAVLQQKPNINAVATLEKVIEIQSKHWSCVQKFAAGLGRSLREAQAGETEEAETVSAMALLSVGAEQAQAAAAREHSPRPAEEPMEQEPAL

T1 sequence (Q9UKV0 whole entry): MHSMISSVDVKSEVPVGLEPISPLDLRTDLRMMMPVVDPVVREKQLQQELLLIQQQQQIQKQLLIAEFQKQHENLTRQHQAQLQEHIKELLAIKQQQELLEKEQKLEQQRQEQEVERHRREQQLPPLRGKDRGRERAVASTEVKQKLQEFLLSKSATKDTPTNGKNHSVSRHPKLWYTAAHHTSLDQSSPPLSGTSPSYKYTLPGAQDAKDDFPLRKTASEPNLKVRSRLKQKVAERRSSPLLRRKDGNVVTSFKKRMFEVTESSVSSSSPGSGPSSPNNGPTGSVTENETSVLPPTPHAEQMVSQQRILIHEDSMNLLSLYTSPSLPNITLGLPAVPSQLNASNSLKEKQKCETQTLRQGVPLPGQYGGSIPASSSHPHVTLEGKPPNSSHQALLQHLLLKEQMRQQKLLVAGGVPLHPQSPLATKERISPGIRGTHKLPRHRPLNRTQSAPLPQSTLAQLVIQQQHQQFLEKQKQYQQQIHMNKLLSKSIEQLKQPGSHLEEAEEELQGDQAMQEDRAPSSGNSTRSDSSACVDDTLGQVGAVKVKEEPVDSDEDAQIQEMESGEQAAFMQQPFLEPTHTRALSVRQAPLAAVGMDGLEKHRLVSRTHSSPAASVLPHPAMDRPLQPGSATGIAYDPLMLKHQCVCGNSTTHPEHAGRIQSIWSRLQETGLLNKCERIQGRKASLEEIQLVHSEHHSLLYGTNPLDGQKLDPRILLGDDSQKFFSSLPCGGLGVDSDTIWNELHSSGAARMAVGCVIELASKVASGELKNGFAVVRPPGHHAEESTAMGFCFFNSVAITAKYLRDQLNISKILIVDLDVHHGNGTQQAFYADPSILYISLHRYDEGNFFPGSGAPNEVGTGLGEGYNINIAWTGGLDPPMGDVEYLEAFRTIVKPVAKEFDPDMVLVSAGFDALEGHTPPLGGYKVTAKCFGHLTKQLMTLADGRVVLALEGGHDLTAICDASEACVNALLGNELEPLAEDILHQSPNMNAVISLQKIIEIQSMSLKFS
HDAC3, sequence (O15379 whole entry): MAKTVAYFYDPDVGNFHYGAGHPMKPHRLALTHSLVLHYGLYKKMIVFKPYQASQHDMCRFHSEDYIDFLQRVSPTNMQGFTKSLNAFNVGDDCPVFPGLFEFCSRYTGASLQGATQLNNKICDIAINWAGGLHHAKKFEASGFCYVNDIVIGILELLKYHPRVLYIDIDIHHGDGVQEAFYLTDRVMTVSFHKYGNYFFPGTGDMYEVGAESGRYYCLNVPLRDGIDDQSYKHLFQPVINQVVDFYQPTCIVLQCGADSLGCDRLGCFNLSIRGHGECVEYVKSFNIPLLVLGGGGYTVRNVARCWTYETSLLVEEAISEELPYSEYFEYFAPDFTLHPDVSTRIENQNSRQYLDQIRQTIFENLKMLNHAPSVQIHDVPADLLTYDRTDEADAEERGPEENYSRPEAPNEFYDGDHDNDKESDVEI
HDAC3, sequence (Q9Y618 395-489 partner limits assumed): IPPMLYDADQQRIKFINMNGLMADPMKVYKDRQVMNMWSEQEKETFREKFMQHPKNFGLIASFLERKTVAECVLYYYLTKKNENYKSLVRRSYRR

## COc1cc2nc(-c3ccc(C)o3)cc(NCC3CCN(c4ncc(C(=O)NO)cn4)CC3)c2cc1OC [CM-444, 2-[4-[[[6,7-dimethoxy-2-(5-methyl-2-furyl)-4-quinolyl]amino]methyl]-1-piperidyl]pyrimidine-5-carbohydroxamic acid]
HDAC3
  inhibition at 10 µM: 90%
HDAC9
  pIC50: 7.05
HDAC9; 10 µM
  inhibition at 10 µM: 98%
Rag2-/-γc-/- mice; 10 mg/kg i.p. daily over 3 weeks, 1-week washout, Rag2-/-γc-/- mice
  tolerability: well tolerated
Rag2-/-γc-/- mice; Week 3
  ALT (Counts (U/L)): 11.5 U/L and 2 U/L and 10.5 U/L
  AST (Counts (U/L)): 32 U/L and 193 U/L and 55.5 U/L and 92 U/L
  Bilirubin (Counts (mg/dl)): 0 mg/dl (2×) and 0.15 mg/dl and 0.05 mg/dl
  HDL (Counts (mmol/l)): 1.85 mmol/l (2×) and 0.7 mmol/l and 2.75 mmol/l
  LCLC3 (Counts (mmol/l)): 0.15 mmol/l and 0.25 mmol/l (2×) and 0.1 mmol/l
  UREA (Counts (mg/dl)): 11.5 mg/dL and 19.7 mg/dL and 22.3 mg/dL and 21.65 mg/dL
  Hematocrit (Counts (%)): 43.7% and 49.1% and 49.8% and 51%
  Hemoglobin (Counts (g/dl)): 11.4 g/dL and 17.4 g/dL and 17.9 g/dL and 18.3 g/dL
  PLT (Counts (K/O)): 730 K/O and 1171 K/O and 1358 K/O and 1362 K/O
  RBC (Counts (K/O)): 8.57 K/O and 10.02 K/O and 10.36 K/O and 10.9 K/O
  WBC (Counts (K/O)): 1.16 K/O and 8.64 K/O and 6.22 K/O and 6.1 K/O
Rag2-/-γc-/- mice; Week 4
  ALT (Counts (U/L)): 19.5 U/L and 11.7 U/L and 32.4 U/L and 21 U/L
  AST (Counts (U/L)): 128.4 U/L and 47.1 U/L and 73.2 U/L and 160.2 U/L
  Bilirubin (Counts (mg/dl)): 0.09 mg/dl (2×) and 0.06 mg/dl and 0.12 mg/dl
  HDL (Counts (mmol/l)): 2.61 mmol/l (2×) and 2.16 mmol/l and 2.58 mmol/l
  LCLC3 (Counts (mmol/l)): 0.3 mmol/l and 0.21 mmol/l (2×) and 0.24 mmol/l
  UREA (Counts (mg/dl)): 27.78 mg/dL and 27.48 mg/dL and 30.3 mg/dL and 24.12 mg/dL
Rag2-/-γc-/- mice; 7d Washout
  Hematocrit (Counts (%)): 52.1% and 56.9% and 53.3% and 53.1%
  Hemoglobin (Counts (g/dl)): 17.9 g/dL and 18 g/dL and 17.7 g/dL and 17.4 g/dL
  PLT (Counts (K/O)): 1470 K/O and 1489 K/O and 1608 K/O and 1482 K/O
  RBC (Counts (K/O)): 10.26 K/O and 10.79 K/O and 10.39 K/O and 10.19 K/O
  WBC (Counts (K/O)): 5.36 K/O and 7.2 K/O and 1.48 K/O and 3.02 K/O
Rag2-/-γc-/- mice; Week 1
  Hematocrit (Counts (%)): 47.7% and 44.8% and 42.1% and 46%
  Hemoglobin (Counts (g/dl)): 18 g/dL and 18.2 g/dL and 17.7 g/dL and 17.8 g/dL
  PLT (Counts (K/O)): 906 K/O and 830 K/O and 622 K/O and 877 K/O
  RBC (Counts (K/O)): 10.04 K/O and 9.45 K/O and 9.05 K/O and 9.73 K/O
  WBC (Counts (K/O)): 3.7 K/O and 3.24 K/O and 5.4 K/O and 2.32 K/O
Rag2-/-γc-/- mice; Week 2
  Hematocrit (Counts (%)): 50.2% and 53.9% and 53.4% and 41.4%
  Hemoglobin (Counts (g/dl)): 17.9 g/dL and 18.4 g/dL and 17.5 g/dL and 15.1 g/dL
  PLT (Counts (K/O)): 1887 K/O and 1805 K/O and 1778 K/O and 1467 K/O
  RBC (Counts (K/O)): 10.43 K/O and 10.72 K/O and 10.28 K/O and 8.62 K/O
  WBC (Counts (K/O)): 5.84 K/O and 4.8 K/O and 3.6 K/O and 7.26 K/O
[1]; ML-2, 48 hours
  LINE-1 methylation (%) CG Position 1: 65% and 67%
  LINE-1 methylation (%) CG Position 2: 73%
  LINE-1 methylation (%) CG Position 3: 77% and 81%
  LINE-1 methylation (%) CG Position 4: 86% and 88%
  LINE-1 methylation (%) CG Position 5: 56% and 64%
[1]; ML-2, 10 days
  LINE-1 methylation (%) CG Position 1: 61% and 57%
  LINE-1 methylation (%) CG Position 2: 48% and 46%
  LINE-1 methylation (%) CG Position 3: 66% and 62%
  LINE-1 methylation (%) CG Position 4: 64% and 60%
  LINE-1 methylation (%) CG Position 5: 46% and 44%
[2]; MOLM-13, 48 hours
  LINE-1 methylation (%) CG Position 1: 100%
  LINE-1 methylation (%) CG Position 2: 83% and 79%
  LINE-1 methylation (%) CG Position 3: 100%
  LINE-1 methylation (%) CG Position 4: 100%
  LINE-1 methylation (%) CG Position 5: 74% and 78%
[2]; MOLM-13, 5 days
  LINE-1 methylation (%) CG Position 1: 62%
  LINE-1 methylation (%) CG Position 2: 60% and 68%
  LINE-1 methylation (%) CG Position 3: 69% and 73%
  LINE-1 methylation (%) CG Position 4: 74% and 76%
  LINE-1 methylation (%) CG Position 5: 53% and 55%
[3]; MV4-11, 48 hours
  LINE-1 methylation (%) CG Position 1: 83% and 85%
  LINE-1 methylation (%) CG Position 2: 79% and 77%
  LINE-1 methylation (%) CG Position 3: 99% and 97%
  LINE-1 methylation (%) CG Position 4: 100%
  LINE-1 methylation (%) CG Position 5: 70% and 66%
[3]; MV4-11, 5 days
  LINE-1 methylation (%) CG Position 1: 80% and 82%
  LINE-1 methylation (%) CG Position 2: 79% and 77%
  LINE-1 methylation (%) CG Position 3: 77%
  LINE-1 methylation (%) CG Position 4: 91% and 89%
  LINE-1 methylation (%) CG Position 5: 65% and 67%
[4]; 48 h, 0.27 µM
  LINE-1 methylation (%) CG Position 1: 97%
  LINE-1 methylation (%) CG Position 2: 83%
  LINE-1 methylation (%) CG Position 3: 100%
  LINE-1 methylation (%) CG Position 4: 100%
  LINE-1 methylation (%) CG Position 5: 73%
[4]; HL-60, 48 h
  LINE-1 methylation (%) CG Position 1 Replicate 1: 96%
  LINE-1 methylation (%) CG Position 1 Replicate 2: 98%
  LINE-1 methylation (%) CG Position 2 Replicate 1: 84%
  LINE-1 methylation (%) CG Position 2 Replicate 2: 82%
  LINE-1 methylation (%) CG Position 3 Replicate 1: 100%
  LINE-1 methylation (%) CG Position 3 Replicate 2: 100%
  LINE-1 methylation (%) CG Position 4 Replicate 1: 100%
  LINE-1 methylation (%) CG Position 4 Replicate 2: 100%
  LINE-1 methylation (%) CG Position 5 Replicate 1: 72%
  LINE-1 methylation (%) CG Position 5 Replicate 2: 74%
[4]; HL-60, 10 days
  LINE-1 methylation (%) CG Position 1: 77% and 81%
  LINE-1 methylation (%) CG Position 2: 66% and 70%
  LINE-1 methylation (%) CG Position 3: 71% and 75%
  LINE-1 methylation (%) CG Position 4: 86% and 88%
  LINE-1 methylation (%) CG Position 5: 65% and 63%
HDAC5
  pIC50: 7.23
HDAC5; 10 µM
  inhibition at 10 µM: 97%
